Data as given in article PMC8668183 (Biomedicine & Pharmacotherapy, 2021).
Structures can show the parent of a compound that is named as a salt. Where two headings read alike, the source gives them in different places.

Tests used:
SARS-CoV-2 [1] = settings: cited from earlier work
SARS-CoV-2 [2] = settings: human prostate cells; cited from earlier work
SARS-CoV-2 [3] = settings: human lung cells; cited from earlier work
CYP1A2 = molecular target: T1, CYP1A2 (Homo sapiens, UniProt P05177); test: Fluorometric CYP1A2 activity assay in human liver microsomes; type: in vitro ADME; settings: reference inhibitor at 6 µM, human hepatic microsomes
T1 sequence (P05177 1-516): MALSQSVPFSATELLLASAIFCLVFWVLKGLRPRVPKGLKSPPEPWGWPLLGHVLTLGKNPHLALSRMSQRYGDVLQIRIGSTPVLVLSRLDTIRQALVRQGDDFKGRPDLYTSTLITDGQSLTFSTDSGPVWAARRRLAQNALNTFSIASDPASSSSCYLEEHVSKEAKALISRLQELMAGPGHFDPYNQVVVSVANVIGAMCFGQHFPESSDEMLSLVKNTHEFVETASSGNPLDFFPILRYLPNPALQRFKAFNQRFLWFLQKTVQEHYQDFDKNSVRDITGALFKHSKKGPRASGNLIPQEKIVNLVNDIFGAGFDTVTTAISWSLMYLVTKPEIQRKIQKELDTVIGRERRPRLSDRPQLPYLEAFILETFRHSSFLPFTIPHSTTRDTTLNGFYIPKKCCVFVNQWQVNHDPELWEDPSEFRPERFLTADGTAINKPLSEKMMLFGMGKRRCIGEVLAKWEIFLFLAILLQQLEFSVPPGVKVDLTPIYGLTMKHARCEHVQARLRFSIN

CYP2C9 = CYP2C9 (Homo sapiens, UniProt P11712); test: Fluorometric CYP2C9 activity assay in human liver microsomes; type: in vitro ADME; settings: reference inhibitor at 60 µM, human hepatic microsomes
CYP2C9, sequence (P11712 whole entry): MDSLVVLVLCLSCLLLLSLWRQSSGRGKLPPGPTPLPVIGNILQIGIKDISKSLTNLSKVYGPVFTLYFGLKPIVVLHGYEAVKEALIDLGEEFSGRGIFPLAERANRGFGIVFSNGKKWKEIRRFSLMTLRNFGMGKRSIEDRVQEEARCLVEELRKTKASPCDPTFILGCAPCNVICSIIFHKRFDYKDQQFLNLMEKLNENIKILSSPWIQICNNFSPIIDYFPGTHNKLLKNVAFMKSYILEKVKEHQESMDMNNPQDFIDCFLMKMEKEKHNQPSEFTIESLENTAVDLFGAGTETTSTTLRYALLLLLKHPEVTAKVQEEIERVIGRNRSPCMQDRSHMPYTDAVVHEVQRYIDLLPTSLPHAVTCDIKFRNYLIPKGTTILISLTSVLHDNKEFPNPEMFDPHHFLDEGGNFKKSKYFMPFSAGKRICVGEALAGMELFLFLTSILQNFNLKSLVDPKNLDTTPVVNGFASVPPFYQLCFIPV

N=C(N)c1ccc2cc(OC(=O)c3ccc(N=C(N)N)cc3)ccc2c1 [nafamostat mesylate]
S protein-mediated fusion and SARS-CoV-2 entry into Calu-3 cells (SARS-CoV-2 [1]): could block successfully

CNC(=O)c1ccc(N2C(=S)N(c3ccc(C#N)c(C(F)(F)F)c3)C(=O)C2(C)C)cc1F [enzalutamide]
SARS-CoV-2 infection (SARS-CoV-2 [2]): suppressed mainly in human prostate cells
SARS-CoV-2 infection (SARS-CoV-2 [3]): not in human lung cells

O=c1cc(-c2ccccc2)oc2c1ccc1ccccc12 [α-naphthoflavone]
effect on CYP1A2 activity (CYP1A2): suppressed significantly

O=C(O)COc1ccc(C(=O)c2cccs2)c(Cl)c1Cl [tienilic acid]
effect on CYP2C9 activity (CYP2C9): inhibited
